# Experimental data taken from patent publication US20100069244A1, “Pyridine Compounds for Combating Pests” (priority 2006, published 2010).
# System: Colorado Potato Beetle (Leptinotarsa decemlineata)
# Assay: Activity against Colorado potato beetle, potato leaf dip
# Type: in vivo
# Details: foliar, 120 h, read-out: mortality compared to 0% mortality of untreated controls
# Experimental: 6. Activity Against Colorado Potato Beetle (Leptinotarsa decemlineata)
# Potato plants were utilized for bioassays. Excised plant leaves were dipped into 1:1 acetone/water dilutions of the active compounds. After the leaves had dried, they were individually placed onto water-moistened filter paper on the bottoms of Petri dishes. Each dish was infested with 5 to 7 larvae and covered with a lid. Each treatment dilution was replicated 4 times. Test dishes were held at approximately 27° C. and 60% humidity. Numbers of live and morbid larvae were assessed in each dish at 5 days after treatment application, and percent mortality was calculated.
smiles,measurement,value
"CC(C)N1CC[C@H]1COc1cncc(Cl)c1 [Ia-155, 3-Chloro-5-((S)-1-isopropyl-azetidin-2-ylmethoxy)-pyridine]",mortality at 300 ppm,> 50%
